{"source": "paper PMC8308870", "about": "(2021)", "key": {"[1]": {"tested_on": "T-Loop (t-Loop) (DNA, hairpin) TATAGCTATATTTTTTTATAGCTATA", "assay": "FRET melting", "conditions": "60 mM K+, potassium cacodylate, pH 7.4, 0.2 µM DNA"}, "[2]": {"tested_on": "k-RAS (CD) (DNA, G4) AGGGCGGTGTGGGAAGAGGGA", "assay": "CD titration", "conditions": "50 mM K+, 50 mM LiCl; 20 mM lithium cacodylate, 20 °C; 10 µM DNA, 0–25 eq; ellipticity decrease, 295 nm band"}, "[3]": {"tested_on": "h-Telo (CD) (DNA, G4) GGGTTAGGGTTAGGGTTAGGG", "assay": "CD titration", "conditions": "10 mM K+, 90 mM LiCl, 20 mM lithium cacodylate, 20 °C, 10 µM DNA, 0–25 eq"}, "[4]": {"tested_on": "k-RAS (CD) (DNA, G4) AGGGCGGTGTGGGAAGAGGGA", "assay": "CD melting (265 nm)", "conditions": "50 mM K+, 50 mM LiCl; 20 mM lithium cacodylate, pH 7.2; 10 µM DNA; compound 5 eq"}, "[5]": {"tested_on": "h-Telo (CD) (DNA, G4) GGGTTAGGGTTAGGGTTAGGG", "assay": "CD melting (290 nm)", "conditions": "10 mM K+, 90 mM LiCl; 20 mM lithium cacodylate, pH 7.2; 10 µM DNA; compound 5 eq"}, "[6]": {"tested_on": "c-MYC (Pu27) (DNA, G4) TGGGGAGGGTGGGGAGGGTGGGGAAGG", "assay": "CD melting (265 nm)", "conditions": "100 mM LiCl, no K+ listed; 20 mM lithium cacodylate, pH 7.2; 10 µM DNA; compound 5 eq"}, "[7]": {"tested_on": "h-Telo (FRET) (DNA, G4) GGGTTAGGGTTAGGGTTAGGG", "assay": "FRET melting", "conditions": "60 mM K+, pH 7.4, 0.2 µM DNA"}, "[8]": {"tested_on": "k-RAS (FRET) (DNA, G4) AGGGCGGTGTGGGAAGAGGGA", "assay": "FRET melting", "conditions": "60 mM K+, pH 7.4, 0.2 µM DNA"}, "[9]": {"tested_on": "Pu27mut (DNA, G4) TGGGGAGGGTGGAAAGGGTGGGGAAGG", "assay": "CD titration", "conditions": "10 mM K+, 2 mM Mg2+, 10 mM (NH4)2SO4; ThermoPol buffer (20 mM Tris-HCl, 0.1% Triton X-100), pH 8.8; parallel G4 induced"}, "[10]": {"conditions": "cacodylate, compound 5 µM (25 eq)"}}, "data": [{"compound": "C[n+]1ccc2c(NC(=O)c3cccc(C(=O)Nc4cccc5c[n+](C)ccc45)n3)cccc2c1", "values": [{"measurement": "ΔTm", "setting": "[1]; compound 25 eq (5 µM)", "result": "1.8 ± 0.2", "unit": "°C"}, {"measurement": "binding", "setting": "[2]", "result": "yes"}, {"measurement": "binding", "setting": "[3]; topology maintained", "result": "yes"}, {"measurement": "ΔTm", "setting": "[4]", "result": "12.2 ± 0.2", "unit": "°C"}, {"measurement": "ΔTm", "setting": "[5]", "result": "4.4 ± 0.2", "unit": "°C"}, {"measurement": "ΔTm", "setting": "[6]", "result": "5.3 ± 0.1", "unit": "°C"}]}, {"compound": "C[n+]1ccc(NC(=O)c2cccc(C(=O)Nc3cc[n+](C)c4ccccc34)n2)c2ccccc21", "values": [{"measurement": "binding", "setting": "[2]", "result": "yes"}, {"measurement": "binding", "setting": "[3]; topology maintained", "result": "yes"}]}, {"compound": "O=C(Nc1ccc2ccccc2n1)c1cccc(C(=O)Nc2ccc3ccccc3n2)n1", "values": [{"measurement": "ΔTm", "setting": "[7]; [10]", "result": "< 0.5", "unit": "°C"}]}, {"compound": "C[n+]1cc(NC(=O)c2cccc(C(=O)Nc3cc4ccccc4[n+](C)c3)n2)cc2ccccc21", "values": [{"measurement": "ΔTm", "setting": "[8]; potassium cacodylate, compound 5 eq (1 µM)", "result": "35.6 ± 0.3", "unit": "°C"}, {"measurement": "ΔTm", "setting": "[1]; compound 5 eq (1 µM)", "result": "6.5 ± 0.1", "unit": "°C"}, {"measurement": "binding", "setting": "[3]; hybrid to parallel switch", "result": "yes"}, {"measurement": "binding", "setting": "[9]", "result": "yes"}, {"measurement": "ΔTm", "setting": "[4]", "result": "> 40", "unit": "°C"}, {"measurement": "ΔTm", "setting": "[6]", "result": "> 40", "unit": "°C"}]}, {"compound": "O=C(Nc1cncc2ccccc12)c1cccc(C(=O)Nc2cncc3ccccc23)n1", "values": [{"measurement": "ΔTm", "setting": "[8]; [10]", "result": "< 0.5", "unit": "°C"}]}, {"compound": "C[n+]1cc(NC(=O)c2cccc(C(=O)Nc3c[n+](C)cc4ccccc34)n2)c2ccccc2c1", "values": [{"measurement": "ΔTm", "setting": "[7]; potassium cacodylate, compound 25 eq (5 µM)", "result": "22.7 ± 0.2", "unit": "°C"}, {"measurement": "binding", "setting": "[2]", "result": "yes"}, {"measurement": "binding", "setting": "[3]; hybrid to antiparallel switch", "result": "yes"}, {"measurement": "ΔTm", "setting": "[5]", "result": "14.9 ± 0.2", "unit": "°C"}]}]}
